Measurements: US6541503B2, “Substituted oxindole derivatives as protein tyrosine kinase and as protein serine/threonine kinase inhibitors” (SmithKline Beecham Corporation, priority 1997, dated 2003)
Like-named read-outs stand apart in the source and are kept apart here.

How the values were obtained:
[1] = tested on: RKO colon adenocarcinoma cells; experiment: FACS assay (cell death by flow cytometry), RKO; type: cell-based, human; conditions: Homo sapiens, 72 h, read-out: FACS RKO IC50
Procedure: (§1) These assays allow determination of both cell death and changes in cell cycle profile in cells following treatment of the compound. The assay is performend as follows:
(§2) 1. Cells are incubated in DMEM to which 10% FCS has been added in a humidified incubator at 37° C. and 5% by volume of CO2 in air. The cells are innoculated in 6-well plates at a density of 0.5-5×10^5 cells per well.
(§3) 2. The test compound is added in serial dilutions 24-36 h after plating in 0.5% DMSO. The plates are then incubated a further 72 h in the presence of the compound. During this time, cells in control cultures undergo at least three cell divisions.
(§4) 3. After incubation, the media is collected and cells are harvested by trypsinization. The cells and media are pooled and pelleted by centrifugation.
(§5) 4. The cell pellet is fixed in a final volume of 3 mL of 50% ice cold MeOH and incubated for a minimum of 30 min at −20° C.
(§6) 5. The cells are pelleted by centrifugation and resuspended in 0.5 mL PBS containing 1%FCS, […] Propidium Iodide (PI) and 5 mg/mL RNase A and incubated 30 min at 37° C. in the dark.
(§7) 6. The samples are analysed by flow cytometry using the relative incorporation of PI as a measure of DNA content of each cell. The % Dead cells is recorded as % of events with less than 2N DNA.
(§8) HDF are normal diploid fibroblast cells. RKO are colon adenocarcinoma cells and MES/SA are […].

[2] = tested on: human diploid fibroblasts (HDF-3); experiment: G1-S progression assay (BrdU incorporation); type: cell-based
Procedure: This assay is designed to determine the ability of compounds to inhibit progression of cells from G1 into S-phase. […] The protocol is as follows:
(1) Grow human diploid fibroblasts (HDF-3) in 100 mm tissue culture dish to confluency. (2) Plate 6-7×10^3 cells/well in a 96 well plate in 100 μl of DMEM. (3) After 16-17 h add various dilutions of test compounds (0.045-100 μM). Dilute compound in DMEM containing DMSO and add 100 μl to each well so that the DMSO conc. is 0.6-0.8% in 200 μl final volume. (4) Two h after addition of compound, add 20 ul of 100 μM BrdU (final conc. 10 μM) Make 100 μM solution in DMEM from 10 mM stock solution. (5) After 4 h, add 200 μl PBS to each well and remove the contents of the wells by inverting the plate and soaking on to the paper towel. Repeat the washing step three times, with 400 ul PBS each time. (6) Fix the cells and denature the DNA by adding 200 μl fixation/denaturation solution to each well for 30-40 min. (7) Remove the fixation/denaturation solution by tapping the plate on the paper towel and add 75 ul of anti BrdU peroxidase antibody to each well. (dilute the antibody to 0.1 U/mL from 15 U/mL stock in PBS containing 1% BSA, Fraction V). Incubate the plate O/N at 4° C. (8) Remove the antibody solution and wash wells four times with 400 μl of PBS. Let the wash solution stay for 3-4 min during each wash. (9) Drain the wells and add 100 μl of chemiluminiscence Elisa reagent (Prepare the reagent 15-20 min before use to bring it to rt by mixing 100 parts of reagent A with 1 part of reagent B). (10) Read the plate in a luminometer. Take 2-3 readings within 6-7 min. Perform the following controls:
Deoxybromouridine (BrdU), anti BrdU peroxidase antibodies, fixation/denaturation solution, chemiluminiscence reagent and BSA Fraction V, were obtained from Boehringer Mannheim. The 96-well white plate with clear bottom were purchased from Corning Costar Corporation. Dulbecco's Modified Eagle Medium containing high glucose, L-glutamine and pyridoxine HCl was obtained from GIBCO BRL.

[3] = tested on: RKO colon adenocarcinoma cells; experiment: MTT assay, RKO; type: cell-based, human
Procedure: (§9) Compounds are tested for their ability to inhibit cell proliferation and cell viability. The metabolic conversion of 3-(4,5-dimethylthiazol-2-yl)-2,5-diphenyltetrazolium bromide (MTT, Sigma #M2128) to a reduced form is a commonly used measure of cellular viability. Following is the procedure:
(§10) Cells are maintained in 75 cm^2 tissue culture flasks until ready for use. The cells are grown and plated for the assay in Dulbecco's modified Eagle's media (DMEM) containing 10% fetal bovine serum. For example, the following cell lines can be used: a) human foreskin fibroblasts (HFF); b) HT29 (human colon carcinoma cell line); c)MDA-MB-468 (human breast carcinoma cell line); d) RKO (human colon adenocarcinoma cell line); e) SW620 (human colon carcinoma cell line); f) A549 (human lung carcinoma cell line); and g) MIA PACA (human pancreatic carcinoma cell line). Cells are maintained at 37° C. in 10% CO2, 90% humidified air. Cells are plated in 96-well tissue culture plates at the densities listed below. 100 μL of cell suspension is added to each well of the 96-well plate except the top row of the plate which contains no cells and serves as a reference for the spectrophotometer.
(§11) Cells are incubated overnight in DMEM containing 10% fetal bovine serum at 37° C. in 10% CO2, 90% humidified air prior to dosing. […] Compounds with solubilities of less than 30 μM are dosed at the highest soluble concentration. Stock solutions of compounds are made in 100% dimethyl sulfoxide (DMSO). Stock solutions are diluted in DMEM containing 100 μg/ml gentamicin and 0.3 to 0.6% DMSO at the twice the highest concentration to be placed on the cells. If compounds have been dissolved in DMSO the final concentration of DMSO on the cells is kept below 0.3%. Three-fold serial dilutions are performed on each compound to prepare 10 concentrations of the compound for dosing. 100 μl of diluted compound is added to the 100 μl of media currently on the dish. For each concentration of compound, 2-4 replicate wells are prepared.
(§12) Cells are returned to incubator and allowed to proliferate in the presence of compound for 72 h before addition of MTT. MTT is prepared in phosphate buffered saline (Irvine Scientific #9240) at a concentration of 2 mg/ml. 50 μl per well of MTT solution is added to the 200 μl of media to yield a final concentration of 0.4 mg/ml and plates are returned to the incubator for 4 h. After 4 h incubation the media, compound and MTT mixture is aspirated from the plates and 100 μl of 100% DMSO is added to each well in addition to 25 μl of Sorenson's Buffer (0.1M glycine, 0.1M NaCl, pH 10.5). Quantitation of metabolic reduction of MTT in each plate is performed by reading optical density at 570 nm wavelength on a Molecular Devices UVmax microplate reader. Growth inhibition curves and 50% inhibitory concentrations are determined using Microsoft Excel.
as §8

MDA MB468 = experiment: MTT assay, MDA MB468; type: cell-based, human
Procedure: as §9, §10, §11, §12

[4] = tested on: MES/SA ovarian carcinoma cells; experiment: FACS assay (cell death by flow cytometry), MES/SA; type: cell-based; conditions: Homo sapiens, MES-SA, 72 h, read-out: FACS MES/SA IC50
Procedure: as §1, §2, §3, §4, §5, §6, §7, §8

[5] = Homo sapiens, Fibroblast, read-out: G1/S Chkpt IC50
[6] = Homo sapiens, 72 h, read-out: MTT RKO IC50
[7] = Homo sapiens, Fibroblast; read-out: G1/S Chkpt IC50
[8] = Homo sapiens, MDA-MB-468, 72 h; read-out: MTT MDA MB468 IC50
[9] = Homo sapiens, 72 h; read-out: MTT RKO IC50

Row | SMILES | IC50 [1] [nM] | IC50 [2, 5] [nM] | IC50 [3, 6] [nM] | IC50 (MDA MB468; Homo sapiens, MDA-MB-468, 72 h, read-out: MTT MDA MB468 IC50) [nM] | IC50 [4] [nM] | IC50 ([1]; 50% cell death) [nM] | IC50 [2, 7] [nM] | IC50 (MDA MB468; [8]) [nM] | IC50 [3, 9] [nM] | IC50 ([4]; 50% cell death) [nM]
1 | CNS(=O)(=O)Cc1ccc(NN=C2C(=O)Nc3ccc4ncccc4c32)cc1 [Example 68, N-Methyl-C-{4-[N′-(2-oxo-2,3-dihydro-pyrrolo[3,2-f]quinolin-1-ylidene)-hydrazino]-phenyl}-methanesulfonamide] | 1100 to 5000 | 1100 to 5000 | > 5000 |  |  |  |  |  |  | 
2 | O=C1Nc2ccc3ncsc3c2C1=CNc1ccc(S(=O)(=O)Nc2ccccn2)cc1 [Example 72, 4-[(7-Oxo-6,7-dihydro-1-thia-3,6-diaza-as-indacen-8-ylidenemethyl)-amino]-N-pyridin-2-yl-benzenesulfonamide] | 1100 to 5000 | 1100 to 5000 | 1100 to 5000 | > 5000 | > 5000 |  |  |  |  | 
3 | CNS(=O)(=O)Cc1ccc(NN=C2C(=O)Nc3cc(C)c(O)c(C)c32)cc1 [Example 99] |  |  |  |  |  | 100 to 500 | 1100 to 5000 | 100 to 500 | 100 to 500 | > 5000
4 | CS(=O)(=O)Cc1ccc(NC=C2C(=O)Nc3ccc4ncsc4c32)cc1 [Example 76, 8-(4-Methylsulfonylmethyl-phenylamino-methylene)-6,8-dihydro-1-thia-3,6-diaza-as-indacen-7-one] |  |  |  |  |  | 1100 to 5000 | 1100 to 5000 | > 5000 | > 5000 | 1100 to 5000
5 | CC(C)(CO)CNS(=O)(=O)c1ccc(NC=C2C(=O)Nc3ccc4ncsc4c32)cc1 [Example 77, N-(3-Hydroxy-2,2-dimethyl-propyl)-4-[(7-oxo-6,7-dihydro-1-thia-3,6-diaza-as-indacen-8-ylidenemethyl)-amino]-benzenesulfonamide] |  |  |  |  |  | 1100 to 5000 | 1100 to 5000 | > 5000 | 1100 to 5000 | 600 to 1000
